Molecules are shown by their SMILES. Several values for one entry are separate records, joined by “and”; a condition that tells them apart may be missing. Equal entries are not always repeated.

The subject of data set [1] is rats with oxaliplatin-induced cold sensitivity. Nature of the data set: Cold plate test in oxaliplatin model. Format: in vivo, rat. The conditions noted are these: oxaliplatin 2.4 mg/kg i.p. Here is the method: (§1) After repeated oral administration of either racemic dimiracetam or the preferred inventive composition with an enantiomeric excess of (R)-dimiracetam of 50%, oxaliplatin-induced mechanical hyperalgesia was measured. Pain threshold was assessed by a Randall & Selitto analgesymeter (Leighton et al. Br. J. Pharmacol. 93:553-560, 1988) before the morning administration. In the morning of day 28, also mechanical allodynia (Sakurai et al. Pain 147:165-74, 2009) and cold sensitivity were assessed, using the von Frey and cold plate tests (Di Cesare Mannelli et al. Exp Neurol 261:22-33, 2014), respectively. […] Development of tolerance was not observed.
The animals were placed in a stainless box (12 cm×20 cm×10 cm) with a cold plate as floor. The temperature of the cold plate was kept constant at 4° C.±1° C. Pain-related behaviors (i.e. lifting and licking of the hind paw) were observed and the time (s) of the first sign was recorded. The cut-off time of the latency of paw lifting or licking was set at 60 s (Di Cesare Mannelli et al. Exp Neurol 261:22-33, 2014).

In data set [2] the test system is rats with oxaliplatin-induced mechanical allodynia. Nature of the data set: Von Frey test in oxaliplatin model. The class given is in vivo, rat. The conditions noted are these: oxaliplatin 2.4 mg/kg i.p. The procedure: as §1
The animals were placed in 20 cm×20 cm Plexiglas boxes equipped with a metallic mesh floor, 20 cm above the bench. Animals were allowed to habituate themselves to their environment for 15 min before the test. An electronic Von Frey hair unit (Ugo Basile, Varese, Italy) was used: the withdrawal threshold was evaluated by applying forces ranging from 0 to 50 g with a 0.2 g accuracy. […] The paw sensitivity threshold was defined as the minimum force required to elicit a robust and immediate withdrawal reflex of the paw. Voluntary movements associated with locomotion were not considered as a withdrawal response. Stimuli were applied to each posterior paw at 5 s intervals. Measurements were repeated 5 times and the final value was obtained by averaging the 5 measurements (Sakurai et al. Pain 147:165-74, 2009).

Data set [3] deals with NMDA-plus-glycine-triggered [3H]-D-aspartate release in synaptosomal preparations of the spinal cord. The following applies: spinal cord synaptosomes; read-out: IC50 for inhibiting NMDA-plus-glycine-triggered [3H]-D-aspartate release; cited from earlier work.
The subject of data set [4] is NMDA plus glycine-evoked [3H]-D-aspartic acid release from rat spinal synaptosomes. Briefly: Inhibition of NMDA+glycine-induced glutamate ([3H]-D-Asp) release from rat spinal synaptosomes (Example 2). Format: biochemical. The conditions noted are these: for Percent inhibition of NMDA + glycine-induced glutamate release from rat spinal synaptosomes: mean ± S.E.M. of 3 to 6 experiments; for IC50: rat spinal synaptosomes, 10 μM NMDA plus 1 μM glycine, read-out: estimated IC50 for inhibition of NMDA plus glycine-evoked [3H]-D-aspartic acid release. The procedure: Rat spinal synaptosomes, free from glial contaminants, were prepared according to the method of Paluzzi S. et al., 2007, a modification of the method of Nakamura et al., 1993, as follows.
Sprague-Dawley rats aged between 90 to 130 days were used. Animals were housed at constant temperature (22±1° C.) and relative humidity (50%) under a regular light-dark schedule (lights 7.00 am-7.00 pm). Food and water were freely available.
Rats were sacrificed by decapitation and the whole spinal cord was rapidly removed and maintained at 4° C. Rat spinal cord was homogenized (90 rpm; 24 up-down strokes in 2 min) in 10 volumes (1 g tissue in 10 ml) of ice cold 0.32 M sucrose, buffered at pH 7.4 using a glass-teflon tissue grinder (clearance 0.25 mm). The homogenate was centrifuged (5 min, 1000 g at 4° C.) to remove nuclei and debris, and the supernatant was gently stratified at 0-4° C. on a discontinuous Percoll® (Sigma Aldrich, St Louis, Mo., USA) gradient (2, 6, 10 and 20% v/v in Tris-buffered sucrose) and centrifuged at 33,500 g for 5 min. The layer between 10 and 20% Percoll (i.e. the synaptosomal fraction) was collected and washed by centrifugation in physiological medium having the following composition (mM): NaCl, 140; KCl, 3; MgSO4 1.2; NaH2PO4, 1.2; NaHCO3 5; CaCl2 1.2; HEPES 10; glucose, 10; pH 7.4. Protein content was measured according to Bradford M M, 1976 using bovine serum albumin as a standard.
Synaptosomes (about 70 μg protein) were incubated at 37° C. for 15 min in 2.5 mL of 0.05 μM [^3H]-D-aspartate ([^3H]-D-Asp; Perkin Elmer Italia, Monza, Milano, Italy). Then, the suspension was diluted to 122.5 mL with physiological medium maintained at 37° C. and 5 mL aliquots of the synaptosomal suspension were layered on microporous filters placed at the bottom of a set of 24 parallel 25 mL superfusion chambers maintained at 37° C. (Superfusion system, Ugo Basile, Comerio, Varese, Italy). Superfusion was then started with physiological medium at a rate of 0.5 mL/min, and was continued for 46 min. Starting at t=37 min, nine consecutive 1-min filtrate samples were collected. NMDA (10 μM) and glycine (1 μM) were introduced at the end of the first sample collected and maintained until the end of the experiment.
The radioactivity contained in each filtrate sample was measured by scintillographic methods, using a Ultima Gold scintillation fluid (Perkin-Elmer Milan, Italy). Each whole 0.5 mL sample was counted for radioactivity by adding 3 mL of scintillation fluid.
Tritium content measured in each sample was expressed as fractional percent (i.e. percent content of each sample with respect to total [^3H] content at the onset of the respective collection period). Drug effects were evaluated by calculating the ratio between the effluxes in the seventh fraction collected (in which the maximum effect of NMDA was reached) and that of the first fraction (basal release, prior to application of NMDA+glycine). This ratio was compared to the same seventh- and first-fraction ratio obtained under control conditions.
The possible effects of racemic and non-racemic dimiracetam mixtures on NMDA plus glycine-induced neurotransmitter release from rat spinal cord synaptosomes were assessed.

The subject of data set [5] is rats with oxaliplatin-induced mechanical hyperalgesia. Briefly: Paw pressure test (Randall & Selitto) in oxaliplatin model. The class given is in vivo, rat. The following applies: oxaliplatin 2.4 mg/kg i.p. The procedure: Paw mechanical sensitivity was determined using a Randall & Selitto apparatus (Randall and Selitto, 1957) exerting a force that increases at constant rate (32 g/s). The stimulus causing paw withdrawal was evaluated before and at different times after treatment. Results represent the mean of mechanical thresholds for paw withdrawal expressed as grams. To avoid possible damage to the rat paw the maximum applied force was set at 240 g. In the single administration protocol, paw pressure tests were performed before (pre-dose) and at regular intervals after treatment.
Peripheral sensory neuropathy was induced in adult rats, by administration of oxaliplatin (Tocris) at 2.4 mg/kg i.p. in saline once daily for 5 consecutive days every week for three weeks (cumulative dose 36 mg/kg) according to Cavaletti et al., 2001. Starting from day 21 after the first oxaliplatin administration, the effect of repeated oral administration of racemic dimiracetam or the preferred inventive composition with an enantiomeric excess of (R)-dimiracetam of 50% corresponding to a 3:1 (R):(S) ratio of the enantiomers on oxaliplatin-induced mechanical hyperalgesia was assessed.
After repeated oral administration of either racemic dimiracetam or the preferred inventive composition with an enantiomeric excess of (R)-dimiracetam of 50%, oxaliplatin-induced mechanical hyperalgesia was measured. Pain threshold was assessed by a Randall & Selitto analgesymeter before the morning administration. […] Development of tolerance was not observed.
as §1
Paw mechanical sensitivity was determined using a Randall & Selitto apparatus exerting a force that increases at constant rate (32 g/s). The stimulus at which rats withdrew the paw was evaluated before and at different times after treatment. Results represent the mean of mechanical thresholds expressed as grams. To avoid any possible damage to the animal paw the maximum applied force was fixed at 240 g (Leighton et al. Br. J. Pharmacol. 93:553-560, 1988).

Data set [6] concerns NMDA+glycine-induced [3H]-D-aspartate release in rat spinal cord synaptosomes. Briefly: In vitro inhibition of pre-loaded [3H]-D-aspartate release induced by NMDA+glycine in rat spinal cord synaptosomes (Example 5). The class given is biochemical. The conditions noted are these: tested at 10 nM. The procedure: These experiments were performed following the previously published methodology (Fariello et al. Neuropharmacology. 2014, (81), 85-94) and the results are shown in FIG. 5.

The test system of data set [7] is NMDA-plus-glycine-triggered release of [3H]-D-aspartate in synaptosomal preparations of the hippocampus. The following applies: hippocampus synaptosomes; read-out: IC50 for inhibiting NMDA-plus-glycine-triggered release of [3H]-D-aspartate; cited from earlier work.
The subject of data set [8] is rats pre-treated with 2′,3′-dideoxycytidine (ddC, zalcitabine). The conditions noted are these: cited from earlier work.
Data set [9] is described as follows: Rat plasma concentration-time profiles after oral administration. Format: in vivo. The conditions noted are these: for rat plasma concentration-time profiles after oral administration: 75 mg/kg p.o. enantiomer vs 150 mg/kg p.o. racemate (FIG. 4A, 4B); for interconversion of enantiomers in vivo: rat, oral administration. Here is the method:
FIG. 4A: Comparison of the plasma concentration-time profiles of the (R)-enantiomer after oral administration of (R)-dimiracetam (75 mg/kg) and after oral administration of racemic dimiracetam (150 mg/kg)
FIG. 4B: Comparison of the plasma concentration-time profiles of the (S)-enantiomer after oral administration of (S)-dimiracetam (2) (75 mg/kg) and after oral administration of racemic dimiracetam (150 mg/kg).

Usually IC50 stands for the concentration at which inhibition is half-maximal. For the molecule `O=C1CN2C(=O)CCC2N1` (racemic) [racemic dimiracetam, (RS)-3,6,7,7a-tetrahydro-1H-pyrrolo[1,5-a]imidazole-2,5-dione], the “Cold plate, licking latency, Day 28” value is 14.8 ± 1.5 s in data set [1] (15 mg/kg b.i.d.) and 15.4 ± 1.0 s in [1] (50 mg/kg b.i.d.). For the same molecule, the “Cold plate, licking latency, Pre-test” value in [1] (15 mg/kg b.i.d.) came to 21.5 ± 1.0 s; in data set [1] (50 mg/kg b.i.d.), 22.0 ± 0.8 s. Further, the “Von Frey paw withdrawal, Day 28” value in data set [2] (15 mg/kg b.i.d.) is listed as 16.0 ± 1.5 g; in data set [2] (50 mg/kg b.i.d.) it was 18.5 ± 2.3 g. The entries for the “Von Frey paw withdrawal, Pre-test” value in data set [2] (15 mg/kg b.i.d.) and in data set [2] (50 mg/kg b.i.d.) were 21.4 ± 1.0 g and 21.4 ± 0.5 g, respectively. The IC50 in [3] was about 20 nM; in data set [4], 14.6 nM and 15 nM; in data set [7], about 3000 nM. In addition, the results for the “Percent inhibition of NMDA + glycine-induced glutamate release from rat spinal synaptosomes” value in [4] (0.1 nM), in data set [4] (1 nM) and in data set [4] (10 nM) were 9 ± 13%, 29 ± 3% and 35 ± 4%, respectively. In addition, the “inhibition of NMDA plus glycine-evoked [3H]-D-aspartic acid release” value in data set [4] (at a concentration of 10 nM) was determined as 36%. In addition, the “Randall & Selitto, paw pressure, Day 28” value in data set [5] (15 mg/kg b.i.d.) came to 48.7 ± 2.5 g; in data set [5] (50 mg/kg b.i.d.), 55.2 ± 1.0 g. Further, the “Randall & Selitto, paw pressure, Pre-test” value is listed as 68.1 ± 1.2 g in [5] (15 mg/kg b.i.d.) and 67.1 ± 0.8 g in data set [5] (50 mg/kg b.i.d.). In addition, in data set [6], the “% inhibition (mean)” value stood at 35.4%. Besides, in data set [8], the “efficacy response after a single oral dose” value (“efficacy response” below) is on record as “superior response compared to either (R)- or (S)-dimiracetam alone”.

In the case of `O=C1CN2C(=O)CC[C@@H]2N1` [(R)-dimiracetam, (R)-3,6,7,7a-tetrahydro-1H-pyrrolo[1,5-a]imidazole-2,5-dione], in data set [4], the IC50 is 123 nM. For the same molecule, the “efficacy response” value in [8] is on record as “partial efficacy response”. Further, in data set [9], the “rat plasma concentration-time profiles after oral administration” value was “identical” and the “interconversion of enantiomers in vivo” value was “do not to interconvert in vivo”.

As to `O=C1CN2C(=O)CC[C@H]2N1` [(S)-dimiracetam, (S)-3,6,7,7a-tetrahydro-1H-pyrrolo[1,5-a]imidazole-2,5-dione], in [4], the IC50 is 418 nM. Also, in data set [8], the “efficacy response” value is recorded as “smaller response than the corresponding dose of the (R)-enantiomer”. In addition, in data set [9], the “rat plasma concentration-time profiles after oral administration” value is listed as “identical” and the “interconversion of enantiomers in vivo” value is given as “do not to interconvert in vivo”.
